Stability and EC50 data for one compound are collected here from ChEMBL document CHEMBL3217551, “A concise synthesis of the potent inflammatory mediator 5-oxo-ETE” (Medchemcomm, 2012).

A short description of data set [1]: Stability of the compound after 48 hrs by NMR spectroscopy. In kind it is physicochemical.
Data set [2] in a line: Stability of the compound at room temperature after 19 days by NMR spectroscopy in presence of CDCl3. The data set is classed as ADME. The note with it: 456 h.
Data set [3] is described as follows: Stability of the compound in DMSO-d6 at room temperature after 4 to 21 days by NMR spectroscopy in presence of CDCl3. The data set is classed as ADME.
A short description of data set [4]: Stability of the compound after 36 hrs by NMR spectroscopy. The data set is classed as physicochemical.
The next data set deals with Oxoeicosanoid receptor 1 (Homo sapiens, UniProt Q8TDS5). As to the kind of experiment: Agonist activity at OXE receptor (unknown origin) expressed in HEK293 cells co-expressing Galpha subunit G16 assessed as calcium mobilization using Oregon Green 488 BAPTA-1/AM by fluorescence assay. In kind it is functional, cell-based. (Calcium assays in cells follow changes in intracellular calcium, usually with a dye or a luminescent sensor.)

Broadly, the EC50 is the concentration needed to bring the measured effect to its halfway point.

Chain of Oxoeicosanoid receptor 1 (Q8TDS5 whole entry): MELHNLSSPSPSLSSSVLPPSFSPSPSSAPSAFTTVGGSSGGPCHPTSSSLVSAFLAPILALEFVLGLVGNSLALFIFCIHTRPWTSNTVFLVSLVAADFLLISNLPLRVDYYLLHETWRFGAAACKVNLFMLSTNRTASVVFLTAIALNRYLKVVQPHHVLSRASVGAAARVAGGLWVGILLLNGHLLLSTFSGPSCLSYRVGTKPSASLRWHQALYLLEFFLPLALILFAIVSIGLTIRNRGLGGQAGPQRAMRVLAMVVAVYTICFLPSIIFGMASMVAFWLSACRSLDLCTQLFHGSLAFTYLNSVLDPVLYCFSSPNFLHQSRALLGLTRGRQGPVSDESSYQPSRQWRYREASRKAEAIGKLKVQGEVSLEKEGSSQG

With `CCCCC/C=C\C/C=C\C/C=C\C=C\C(=O)CCCC(=O)O` [5-OXO-ETE], the Stability result in data set [1] is reported as “Unstable”; in data set [2] it was “Stable”; in data set [3], “Stable”; in data set [4] it was “Stable”. Besides, the EC50 at Oxoeicosanoid receptor 1 was 67 nM.
